Source: US20160075991A1, “Process for Preparing Starter Cultures of Lactic Acid Bacteria” (INSTITUT NATIONAL DE LA RECHERCHE, priority 1998, published 2016)

How the values were obtained:
Experiment in all cases: Culture with hemin and agitation, different strains (Example 4)
Type in all cases: cell-based, L. lactis
[1] = test system: Z105; conditions: strain Z105, hemin 10 μg/ml and agitation, M17 1% glucose, 24 h
Procedure: (§1) Bacteria [MG1363 and 7 strains (IL1403, IL582, IL801, IL896, Z105, Z106, Z191) representative of L. lactis subgroups [TAILLEZ et al., System. Appl. Microbiol., 21, 530-538, (1998)] are cultured in M17 medium (1% glucose) inoculated (1/1000 dilution) with a saturated starter culture previously grown at 30° C. for 24 h. Hemin at a final concentration of 10 μg/ml is added to the inoculated medium before aerating the cultures by shaking (minimum 220 rpm). Control cultures are grown in parallel with no hemin in the medium, and no shaking. […]

[2] = test system: Z191; conditions: strain Z191, hemin 10 μg/ml and agitation, M17 1% glucose, 24 h
Procedure: as §1

[3] = test system: IL801; conditions: strain IL801, hemin 10 μg/ml and agitation, M17 1% glucose, 24 h
[4] = test system: Z106; conditions: strain Z106, hemin 10 μg/ml and agitation, M17 1% glucose, 24 h
Procedure: Bacteria [MG1363 and 7 strains (IL1403, IL582, IL801, IL896, Z105, Z106, Z191) representative of L. lactis subgroups [TAILLEZ et al., System. Appl. Microbiol., 21, 530-538, (1998)] are cultured in M17 medium (1% glucose) inoculated (1/1000 dilution) with a saturated starter culture previously grown at 30° C. for 24 h. Hemin at a final concentration of 10 μg/ml is added to the inoculated medium before aerating the cultures by shaking (minimum 220 rpm). Control cultures are grown in parallel with no hemin in the medium, and no shaking. After 24 h., aliquots are taken and OD600 and final pH are measured.

SMILES: C=CC1=C(C)c2cc3[n-]c(cc4nc(cc5[n-]c(cc1n2)c(C)c5C=C)C(C)=C4CCC(=O)O)c(CCC(=O)O)c3C.[Cl-].[Fe+3] [hemin]
- pH ([1]; final pH): 5.67
- OD500 nm [1]: 5
- pH ([2]; final pH): 5.36
- OD500 nm [2]: 3.8
- pH ([3]; final pH): 5.44
- OD500 nm [3]: 4.3
- pH ([4]; final pH): 5.74
- OD500 nm [4]: 4.5
